{"source": "paper PMC10671697", "about": "“Drug-Induced Conformational Dynamics of P-Glycoprotein Underlies the Transport of Camptothecin Analogs” (International Journal of Molecular Sciences, 2023)", "key": {"[1]": {"target": "T1, wild-type mouse Pgp (MDR3) (Mus musculus, UniProt P21447)", "T1 sequence (P21447 whole entry)": "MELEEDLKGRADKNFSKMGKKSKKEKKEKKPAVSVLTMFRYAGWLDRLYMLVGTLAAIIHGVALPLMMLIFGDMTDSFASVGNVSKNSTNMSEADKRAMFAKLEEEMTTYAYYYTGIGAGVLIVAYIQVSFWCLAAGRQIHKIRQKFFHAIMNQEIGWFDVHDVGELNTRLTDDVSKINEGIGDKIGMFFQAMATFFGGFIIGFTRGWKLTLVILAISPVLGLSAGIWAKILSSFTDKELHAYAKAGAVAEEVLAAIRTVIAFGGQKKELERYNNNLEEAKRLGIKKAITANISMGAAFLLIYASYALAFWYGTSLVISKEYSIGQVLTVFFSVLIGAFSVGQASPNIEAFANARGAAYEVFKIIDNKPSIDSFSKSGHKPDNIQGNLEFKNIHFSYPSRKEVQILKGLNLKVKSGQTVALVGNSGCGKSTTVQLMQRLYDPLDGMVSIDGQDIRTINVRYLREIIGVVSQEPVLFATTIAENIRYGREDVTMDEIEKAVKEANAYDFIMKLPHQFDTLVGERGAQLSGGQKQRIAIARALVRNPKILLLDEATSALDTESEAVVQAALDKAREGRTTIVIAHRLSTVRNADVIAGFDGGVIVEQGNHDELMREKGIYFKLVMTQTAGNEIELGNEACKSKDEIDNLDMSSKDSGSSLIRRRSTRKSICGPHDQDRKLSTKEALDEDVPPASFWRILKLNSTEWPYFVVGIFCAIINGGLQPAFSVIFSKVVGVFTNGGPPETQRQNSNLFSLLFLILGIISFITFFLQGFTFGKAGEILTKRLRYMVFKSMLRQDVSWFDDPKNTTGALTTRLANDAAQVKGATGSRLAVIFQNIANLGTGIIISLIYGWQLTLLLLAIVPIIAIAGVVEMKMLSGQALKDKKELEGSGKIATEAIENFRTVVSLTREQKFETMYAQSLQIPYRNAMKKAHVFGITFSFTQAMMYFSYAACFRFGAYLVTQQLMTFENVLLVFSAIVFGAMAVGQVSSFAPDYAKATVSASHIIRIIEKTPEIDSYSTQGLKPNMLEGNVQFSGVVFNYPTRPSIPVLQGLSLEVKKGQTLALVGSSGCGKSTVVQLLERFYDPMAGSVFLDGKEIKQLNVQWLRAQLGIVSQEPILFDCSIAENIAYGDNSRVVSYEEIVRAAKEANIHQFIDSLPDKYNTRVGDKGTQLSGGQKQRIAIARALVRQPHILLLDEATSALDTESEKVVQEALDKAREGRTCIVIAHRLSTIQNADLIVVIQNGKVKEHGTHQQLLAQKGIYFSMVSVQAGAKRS", "protocol": "Atomic force microscopy (AFM) has been adapted for analyzing protein dynamics and structure, which has enabled the determination of conformational changes induced by ligands. In this study, Pgp reconstituted into liposomes was diluted in imaging buffer (20 mM HEPES, 100 mM NaCl, and 5 mM MgCl2; pH 7.4) to 100 nM. About 90 µL droplets of the diluted Pgp solution were deposited on cleaned […] (Corning, Corning, NY, USA), followed by 30 min of incubation at 25 °C. This step caused the proteoliposomes to rupture, forming a planar lipid bilayer on top of the mica surface. The samples were rinsed at least five times using the buffer exchange technique, wherein 90 µL of buffer was utilized. Next, AFM imaging of the EC-side and C-side domains of Pgp protrusions above the lipid bilayer was performed as previously described. For each of the selected CPTs used in this study, AFM imaging of the ligand-free Pgp (apoPgp) was performed first, then ligand was added, and imaging was repeated in nominally the same area. […] Only membrane-external protrusions that could be positively assigned as either EC or C-side domain features of Pgp were analyzed. All the AFM images were obtained in an imaging buffer at about 30 °C in tapping mode with biolever mini tips (BL-AC40TS, Olympus, Tokyo, Japan) installed on a commercial instrument (Asylum Research Cypher, Santa Barbara, CA, USA). The tip-sample force was kept below 100 pN to minimize the probability of protein distortion. The AFM images were analyzed with custom software written in Igor Pro 7 (Wavemetrics, Portland, OR, USA), as described previously. Kernel density estimation with Epanechnikov kernels in Igor Pro 7 software was used to generate smoothed histograms for further analysis. The histograms were fitted with a summation of Gaussian distributions. The Bayesian information criterion was used to select the best model after fitting with 1–5 Gaussian distributions as described previously (see Supporting Information)."}, "[2]": {"target": "T1, wild-type mouse Pgp (MDR3)", "excerpt": "For a molecule that binds to the receptor, only the protons within a distance of 5 Å from the saturated protein receive noticeable saturation transfer. The saturation transferred from the receptor to the bound ligands can be detected upon dissociation as a saturation transfer difference (STD). The observed degree of saturation transferred inversely correlates with the distance between the ligand and the receptor and reflects the degree of interaction. Due to the high lipophilicity of most Pgp substrates, there is a high possibility of non-specific interactions between the ligands and liposomes used, which can interfere with the STD NMR spectrum observed. The STD NMR spectrum of the drug in the presence of liposomes was performed and subtracted from the STD ^1H NMR spectrum of the ligand in the presence of proteins reconstituted into liposomes to yield a STDD. […] All NMR experiments were carried out at 25 °C (unless otherwise stated) on a Varian INOVA 600 MHz NMR spectrometer installed with a 1H-detect broadband probe {HX}.\nThe control samples were identically prepared with liposomes instead of Pgp reconstituted in liposomes. […] The difference between the on-resonance and the off-resonance created the STD ^1H NMR spectrum. A control experiment consisting of liposomes and drugs was obtained under identical conditions and subtracted from the ^1H STD NMR spectrum of the reconstituted Pgp sample with the drug to generate the STDD ^1H NMR spectrum. […] The STDD amplification factor was calculated using Equation (5) below. (5) STDD Amplication Factor=l/PΔl/Io where Io is the amplitude of the ^1H NMR peaks, l is the ligand concentration, and P is the protein concentration.", "remark": "listed apart in the source"}, "[3]": {"target": "T1, wild-type mouse Pgp (MDR3)", "details": "for Decrease of protein fluorescence from the initial fluorescence: ex 295 nm; for Decrease of protein fluorescence: saturating AMPPNP"}, "[4]": {"system": "human tumor xenograft models", "details": "different human tumor xenograft models, versus TPT; cited from earlier work"}, "[5]": {"target": "T1, wild-type mouse Pgp (MDR3)", "protocol": "Acrylamide quenching of protein fluorescence was used to probe drug-induced Pgp conformational changes indirectly. For this assay, a solution containing 1 µM of Pgp reconstituted into liposomes was titrated with acrylamide. The preparation was carried out in Chifflet buffer (pH 7.4) supplemented with 2 mM DTT. The assay was performed both in the presence and absence of ligand(s). […] The fluorescence intensities were corrected for dilution, background, and inner filter effects using Equation (3). A Stern–Volmer plot of Fo(corrected)/F(corrected) versus the concentration of acrylamide added was generated. The slope of the curve, an indicator of the degree of quenching, is related to the Stern–Volmer’s constant (Ksv) by Equation (4). (4) Focorrected/Fcorrected=1+KsvQ where [Q] is the concentration of the quencher, acrylamide.", "remark": "listed apart in the source"}, "[6]": {"details": "second-line chemotherapy, versus TPT; cited from earlier work"}, "LS513 cells": {"system": "LS513 cells", "details": "LS513 cells treated with BCRP and MRP2 inhibitors, versus SN-38; cited from earlier work"}, "[7]": {"target": "T1, wild-type mouse Pgp (MDR3)", "experiment": "biochemical"}, "[8]": {"details": "versus TPT; cited from earlier work"}, "[9]": {"details": "800 µM drug, 1 µM Pgp in liposomes, 25 °C"}}, "note": "Several values for one entry are separate records, joined by “and”; a condition that tells them apart may be missing. Identical values can stand only once. Like-named read-outs stand apart in the source and are kept apart here.", "data": [{"molecule": "CCc1c2c(nc3ccc(OC(=O)N4CCC(N5CCCCC5)CC4)cc13)-c1cc3c(c(=O)n1C2)COC(=O)[C@]3(O)CC", "note": "[IRT, Irinotecan]", "values": [{"measurement": "C-side height of tallest Pgp population in presence of drug", "setting": "[1]; 100 µM drug, apo 76 ± 9 Å", "result": "70 ± 10", "unit": "Å"}, {"measurement": "Highest STDD amplification factor", "setting": "[2]", "result": "~81"}, {"measurement": "Change of affinity for Pgp in the presence of AMPPNP", "setting": "[3]", "result": "diminished by over threefold"}, {"measurement": "Stern–Volmer constant (Ksv) of drug-induced Pgp fluorescence quenching", "setting": "[3]", "result": "0.07 ± 0.01", "unit": "µM⁻¹"}, {"measurement": "Efficacy compared with TPT", "setting": "[4]", "result": "greater efficacy"}, {"measurement": "Decrease in the Ksv value of apoPgp (acrylamide quenching)", "setting": "[5]", "result": "~ 20%"}, {"measurement": "Ksv of acrylamide quenching of Pgp fluorescence", "setting": "[5]", "result": "0.83 ± 0.05 and 0.83 ± 0.05 M^−1"}, {"measurement": "Survival rate of patients compared with TPT", "setting": "[6]", "result": "higher survival rate"}]}, {"molecule": "CC[C@@]1(O)C(=O)OCc2c1cc1n(c2=O)Cc2cc3c(CN(C)C)c(O)ccc3nc2-1", "note": "[TPT, Topotecan]", "values": [{"measurement": "Probability density difference (∆PD) of tallest population relative to apo", "setting": "[1]; 60 µM drug", "result": "4.11 × 10^7"}, {"measurement": "C-side height of tallest Pgp population in presence of drug", "setting": "[1]; 60 µM drug, apo 74 ± 9 Å", "result": "75 ± 7", "unit": "Å"}, {"measurement": "Average STDD amplification factor", "setting": "[2]; [9]", "result": "around 45"}, {"measurement": "Highest STDD amplification factor", "setting": "[2]; [9]", "result": "approximately 133"}, {"measurement": "Decrease of protein fluorescence from the initial fluorescence", "setting": "[3]; 100 µM drug, absence of AMPPNP", "result": "approximately 71.6%"}, {"measurement": "Decrease of protein fluorescence", "setting": "[3]; 100 µM drug", "result": 61.0, "unit": "%"}, {"measurement": "Stern–Volmer constant (Ksv) of drug-induced Pgp fluorescence quenching", "setting": "[3]; absence of AMPPNP", "result": "0.41 ± 0.09", "unit": "µM⁻¹"}, {"measurement": "Change of affinity for Pgp in the presence of AMPPNP", "setting": "[3]; presence vs absence of AMPPNP", "result": "diminished by over threefold"}, {"measurement": "Stern–Volmer constant (Ksv) of drug-induced Pgp fluorescence quenching", "setting": "[3]; saturating (3.2 mM) AMPPNP", "result": "0.06 ± 0.01", "unit": "µM⁻¹"}, {"measurement": "Relative efflux rate, times higher than SN-38", "setting": "LS513 cells", "result": "approximately 4 times"}, {"measurement": "Kd", "setting": "[7]; absence of AMPPNP", "result": "2.47 ± 0.57", "unit": "µM"}, {"measurement": "Kd", "setting": "[7]; saturating (3.2 mM) AMPPNP", "result": "16 ± 3.27", "unit": "µM"}, {"measurement": "Ksv of acrylamide quenching of Pgp fluorescence", "setting": "[5]; 60 µM drug, 3.2 mM AMPPNP", "result": "0.71 ± 0.04", "unit": "M⁻¹"}, {"measurement": "Ksv of acrylamide quenching of Pgp fluorescence", "setting": "[5]; 60 µM drug, absence of AMPPNP, apoPgp 1.58 ± 0.03", "result": "0.78 ± 0.06", "unit": "M⁻¹"}, {"measurement": "Decrease in the Ksv value of apoPgp (acrylamide quenching)", "setting": "[5]; 60 µM drug, no AMPPNP (Figure 4)", "result": "~50", "unit": "%"}]}, {"molecule": "CCc1c2c(nc3ccc(O)cc13)-c1cc3c(c(=O)n1C2)COC(=O)[C@]3(O)CC", "note": "[SN-38]", "values": [{"measurement": "Probability density difference (∆PD) of tallest population relative to apo", "setting": "[1]; 30 µM drug", "result": "−1.08 × 10^7"}, {"measurement": "C-side height of tallest Pgp population in presence of drug", "setting": "[1]; 30 µM drug, apo 84 ± 5 Å", "result": "78 ± 7", "unit": "Å"}, {"measurement": "Decrease of protein fluorescence from the initial fluorescence", "setting": "[3]; 60 µM drug, absence of AMPPNP", "result": "~40.6", "unit": "%"}, {"measurement": "Decrease of protein fluorescence", "setting": "[3]; 60 µM drug", "result": 38.8, "unit": "%"}, {"measurement": "Stern–Volmer constant (Ksv) of drug-induced Pgp fluorescence quenching", "setting": "[3]; absence of AMPPNP", "result": "0.28 ± 0.09", "unit": "µM⁻¹"}, {"measurement": "Change of affinity for Pgp in the presence of AMPPNP", "setting": "[3]; presence vs absence of AMPPNP", "result": "diminished by over threefold"}, {"measurement": "Stern–Volmer constant (Ksv) of drug-induced Pgp fluorescence quenching", "setting": "[3]; saturating (3.2 mM) AMPPNP", "result": "0.076 ± 0.02", "unit": "µM⁻¹"}, {"measurement": "Kd", "setting": "[7]; absence of AMPPNP", "result": "3.53 ± 1.14", "unit": "µM"}, {"measurement": "Kd", "setting": "[7]; saturating (3.2 mM) AMPPNP", "result": "13.2 ± 4.23", "unit": "µM"}, {"measurement": "Fold higher cellular retention than TPT", "setting": "[8]", "result": "> 2", "unit": "fold"}, {"measurement": "Ksv of acrylamide quenching of Pgp fluorescence", "setting": "[5]; 30 µM drug, 3.2 mM AMPPNP", "result": "0.81 ± 0.08", "unit": "M⁻¹"}, {"measurement": "Ksv of acrylamide quenching of Pgp fluorescence", "setting": "[5]; 30 µM drug, absence of AMPPNP, apoPgp 1.58 ± 0.03", "result": "1.12 ± 0.02", "unit": "M⁻¹"}, {"measurement": "Decrease in the Ksv value of apoPgp (acrylamide quenching)", "setting": "[5]; 30 µM drug, no AMPPNP (Figure 4)", "result": "~ 28%"}]}, {"molecule": "Nc1ncnc2c1ncn2[C@@H]1O[C@H](COP(=O)([O-])OP(=O)([O-])NP(=O)([O-])[O-])[C@@H](O)[C@H]1O.[Li+].[Li+].[Li+].[Li+]", "note": "[AMPPNP, Adenosine 5′-(β,γ-imido)triphosphate lithium salt]", "values": [{"measurement": "Ksv of acrylamide quenching of Pgp fluorescence", "setting": "[5]; Pgp with saturating (3.2 mM) AMPPNP alone, no CPT", "result": "0.84 ± 0.07", "unit": "M⁻¹"}]}, {"molecule": "CC(=O)N[C@@H](Cc1c[nH]c2ccccc12)C(N)=O", "note": "[NATA, N-acetyl-L-tryptophanamide]", "values": [{"measurement": "Ksv of acrylamide quenching of NATA fluorescence", "setting": "[5]; positive control, fully solvent-exposed tryptophan, no Pgp", "result": "15.43 ± 0.37", "unit": "M⁻¹"}]}]}
